Experiments:
Type in all cases: in vivo
[1] = tested on: CD31, VEGF-A and Lyve-1 in transplanted mouse corneas; experiment: Mouse corneal transplant model: expression levels in the corneas by real-time PCR on day 56; settings: Group R3: three times daily, vs Group P, p<0.001
Protocol: (§1) Mouse corneal transplant models were prepared in accordance with a method described in a document (J Biol Methods 2015 2(3); e 27, hereinafter referred to as Document A) and used in an experiment. More specifically, allograft corneal transplantation was performed between 6 to 8-week-old donor male C57BL/6 mice and 6 to 8-week-old host male Balb/c mice.
(§2) The mice that had received corneal transplantation were divided into three groups (5 mice per group): ocular instillation of PBS twice daily (Group P: control group); ocular instillation of ripasudil twice daily (Group R2); and ocular instillation of ripasudil three times daily (Group R3).
(§3) The amount of PBS or ripasudil instilled into one eye per administration was 0.1 μL, and GLANATEC ophthalmic solution 0.4% was used as ripasudil.
(§4) After transplantation, the ocular instillation was performed every day until day 56, during which the angiogenesis score and opacity score (each of which was determined by a method described in. Document A) and the survival time of corneal grafts were evaluated with a slit lamp microscope every 7 days. On day 56 that was the final day of the experiment, in addition to the above evaluations, the expression levels of vascular endothelial cells (CD31), vascular endothelial cell growth factor (VEGF-A), and lymph vessels (Lyve-1) in the corneas were measured by real-time-PCR.

[2] = tested on: transplanted human cornea; experiment: Effects on transplanted human cornea (case, angiogenesis in corneal graft); settings: after 3 weeks of ocular instillation
Protocol: Corneal transplantation was performed in a case of corneal perforation resulting from corneal herpes (person), and as a result, severe hyperemia was observed one month after surgery, and vascularization was observed also in a corneal graft. Peripheral anterior synechia was observed, and secondary glaucoma was observed, and therefore GLANATEC ophthalmic solution 0.4% was prescribed.

[3] = tested on: mouse cervical lymph node cells; experiment: Mouse corneal transplant model: cervical lymph node cells by flow cytometry (FACS) on day 14; settings: day 14 after transplantation
Protocol: (§5) Mouse corneal transplant models were prepared (surgery), divided into groups (Group P, Group R2, and Group R3), and treated (ocular instillation) in the same manner as in Example 1. On day 14 after transplantation, cervical lymph node cells were collected, and CD4^+ T cells, the expression levels of inflammatory cytokines IFNγ and IL-17, CD4^+CD25^+Foxp3^+ regulatory T cells (Tregs) involved in immune tolerance, […], and the expression level of Foxp3 (Mean Fluorescein Intensity, MFI) were measured by flow cytometry (FACS). Further, on day 14 after transplantation, the expression levels of foxp3, IL-10, and TGFβ1 in the corneas were also measured by a real-time PCR (qPCR).

[4] = tested on: foxp3, IL-10 and TGFβ1 in transplanted mouse corneas; experiment: Mouse corneal transplant model: expression levels in the corneas by real-time PCR (qPCR) on day 14; settings: day 14 after corneal transplantation
Protocol: as §5

[5] = tested on: transplanted mouse corneas; experiment: Mouse corneal transplant model: angiogenesis score, opacity score and graft survival by slit lamp microscope; settings: Group R3: ocular instillation three times daily
Protocol: as §1, §2, §3, §4

[6] = until day 56, vs Group P (PBS), p<0.05

With C[C@H]1CNCCCN1S(=O)(=O)c1cccc2cncc(F)c12.Cl.O.O [ripasudil, 4-fluoro-5-{[(2S)-2-methyl-1,4-diazepan-1-yl]sulfonyl}isoquinoline monohydrochloride dihydrate] as the compound, how does the “CD31 expression level in the corneas” value [1] read?
Its value is “significantly lower”.

What about the “Lyve-1 expression level in the corneas” value [1] of the same compound?
Its value is “significantly lower”.

What about the “VEGF-A expression level in the corneas” value [1] of the same compound?
Its value is “significantly lower”.

And the “numerical analysis of new blood vessels with Image J (FIG. 10)” value [2]?
Its value is “effect of suppressing angiogenesis”.

And the “Foxp3 expression level (MFI) in cervical lymph node cells” value ([3]; Group R2: twice daily)?
The value was “significantly increased”.

And the “CD4+CD25+Foxp3+ regulatory T cells (Tregs) in cervical lymph node cells” value ([3]; Group R3: three times daily)?
The value was “significantly increased”.

What about the “CD4+CD25+Foxp3− regulatory T cells (exTregs) in cervical lymph node cells” value ([3]; Group R3: three times daily) of the same compound?
Its value is “significantly reduced”.

And the “Foxp3 expression level (MFI) in cervical lymph node cells” value ([3]; Group R3: three times daily)?
The value was “significantly increased”.

What about the “inflammatory cytokine IFN-γ in cervical lymph node cells” value ([3]; Group R3: three times daily) of the same compound?
The value was “significant reduction”.

What about the “expression of foxp3 in the corneas” value ([4]; Group R2: twice daily) of the same compound?
Its value is “significantly increased”.

What about the “expression of IL-10 in the corneas” value ([4]; Group R3: three times daily) of the same compound?
The value was “significantly increased”.

What about the “expression of TGFβ1 in the corneas” value ([4]; Group R3: three times daily) of the same compound?
The value was “significantly increased”.

What about the “expression of foxp3 in the corneas” value ([4]; Group R3: three times daily) of the same compound?
The value was “significantly increased”.

What about the “transparency of transplanted cornea (photographs, FIG. 1)” value [5] of the same compound?
Its value is “maintained until day 56”.

What about the angiogenesis score [5, 6] of the same compound?
The angiogenesis score was “significantly lower”.

What about the opacity score [5, 6] of the same compound?
Its opacity score is “significantly lower”.

What about the “survival time of corneal grafts” value [5, 6] of the same compound?
The value was “significantly prolonged”.

Source: patent publication US10537579B2, “Rejection reaction suppressant” (JUNTENDO EDUCATIONAL FOUNDATION, priority 2017, dated 2020)
